Measurements as given in EP2119770B1, “Production of alpha-oxyfunctionalized carbonyl compounds” (priority 2008, dated 2009).

Tests used:
Assay type in all cases: biochemical
Gox1615 [1] = target: T1, Gox1615 (Gluconobacter oxydans, UniProt Q5FQJ0); test: Enzyme kinetics (Lineweaver-Burk plots), Gox1615; details: NADPH-dependent reduction
T1 sequence (Q5FQJ0 1-332): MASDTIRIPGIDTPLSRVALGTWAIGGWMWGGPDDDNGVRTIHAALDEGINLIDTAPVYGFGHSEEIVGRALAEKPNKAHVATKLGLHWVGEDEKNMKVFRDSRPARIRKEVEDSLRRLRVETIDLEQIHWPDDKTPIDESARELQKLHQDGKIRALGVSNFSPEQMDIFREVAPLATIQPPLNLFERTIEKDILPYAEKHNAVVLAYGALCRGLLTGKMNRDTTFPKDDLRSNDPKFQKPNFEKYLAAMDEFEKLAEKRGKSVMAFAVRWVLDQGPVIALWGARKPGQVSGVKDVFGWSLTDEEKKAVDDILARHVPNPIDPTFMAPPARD
Description: (§1) Determination of pH and temperature optima and enzyme kinetics: The optimum pH for enzyme activities was determined by a modified method of Salusjärvi, T. et al., Appl. Microbiol. Biotechnol. 65:306-314 (2004) using the following buffer system (50 mM final concentration each): sodium acetate pH 4.5 - 6.5, potassium phosphate pH 6.5 - 8.0, Tris-HCl pH 8.0 - 10. Temperature optima for the biocatalysts were determined under standard reaction conditions at temperatures ranging from 20 - 80 °C. The Michaelis constant (Km) for the proteins was determined from purified enzyme by Lineweaver-Burk plots. Assays were performed at optimum pH for each enzyme and at 30 °C using the top substrate and a targeted substrate. The Km for each substrate was calculated using concentrations of 0.0025 to 10 mM, and the Km NAD(P)H and NAD(P) was calculated using concentrations of 0.01 to 0.5 mM
(§2) The Michaelis constants were determined from purified enzyme by Lineweaver-Burk plots. The Km and Vmax values for the substrates were calculated using concentrations of 0.025 to 10 mM, The optimal pH values and temperatures for enzyme activities are also shown in Tab. 11. Tab. 11: Summary of kinetic parameters

Gox1615 [2] = target: T1, Gox1615; test: Regioselectivity of bioconversion, product determined by NMR, Gox1615; details: bioconversion with Gox1122 cofactor regeneration, NMR analysis
Excerpt: Cofactor regeneration: A prerequisite for the production of α-hydroxycarbonyl compounds is the regeneration of the expensive coenzymes and the stability of the protein catalysts. By coupling two coenzyme-dependent enzyme reactions, NADPH can be continuously regenerated. […] For this purpose, we used a combined enzymatic reaction between the NADPH-dependent oxidoreductases that form α-hydroxycarbonyl compounds and the aldehyde dehydrogenase GOX1122 (see Schweiger, P. et al., J. Mol. Microbiol. Biotechnol. 13:147-155 (2007)) that produces the reduced cofactor in the course of acetaldehyde oxidation. […] The biotransformation was performed in a batch process (total volume 2.5 ml 40 mM potassium phosphate buffer pH 7). 30 µg of purified Gox1122 and of NADPH-dependent oxidoreductases and 50 µM NADPH were added. The substrate concentration in the beginning was 20 mM 2,3-pentanedione and 20 mM acetaldehyde. Fresh substrates were added every 60 min (20 mM each).
NMR: The 2.5 ml bioconversion was extracted with two times equal volume of d-chloroform. ^1H and ^13C NMR spectra were recorded on a DPX 300 Spectrometer (300 MHz) and referenced to the CDCl3 internal standard. Chemical samples analyzed with Bruker NMR Suite 2.5 software constructed final product structures.
2.7 Regioselectivity of GOX0644 and GOX1615: Tab. […] Tab. 10: Summary of Regioselectivity
The reduced NADPH was oxidized in the reduction of phenylglyoxal to 2-hydroxy-2-phenyl-acetaldehyde by protein Gox1615. 5 ml bioconversions for determining regioselectivity were set up with 2 mg of proteins Gox1615 and Gox1122, 40 mM potassium phosphate buffer, pH 7.0, 50 µM NADPH. Substrates (20 mM phenylglyoxal and acetaldehyde) were added every 30 min. The reaction was followed for 3 h to produce quantities between 40-60 mg of product (2-phenyl-2-hydroxyaldehyde).

Gox0644 [3] = target: T2, Gox0644 (Gluconobacter oxydans, UniProt Q5FT75); test: Enzyme kinetics (Lineweaver-Burk plots), Gox0644; details: NADPH-dependent reduction
Description: as §1, §2

Gox0644 [4] = target: T2, Gox0644; test: Gox0644 acetaldehyde tolerance test
Excerpt: 3.1. […] By coupling two coenzyme-dependent enzyme reactions, NADPH can be continuously regenerated. […] For this purpose, a combined enzymatic reaction was used between the NADPH-dependent oxidoreductases that form α-hydroxy carbonyl compounds and the aldehyde dehydrogenase GOX1122 that produces the reduced cofactor in the course of acetaldehyde oxidation. […] The products derived from the α-diketone and α-ketoaldehyde substrate reaction were generated according to the cofactor regeneration protocol. […] In both the reactions with phenylglyoxal and 2,3 pentanedione, Gox0644 activity remained similar to the control reaction consisting of a reaction without acetaldehyde (Tab. 12/13). […] In the reaction with 2,3 pentanedione there was a slight decrease of about 20% from the control, however, the activity levels were still very high at 66.8 U/mg. […] Table 12: Gox0644 acetaldehyde tolerance tests with phenylglyoxal

**Q.** `CCCC(=O)C(C)=O` [2,3-hexanedione] was tested. Which Vmax (Gox1615 [1]) did it give?
**A.** The Vmax was 6 U/mg protein.

**Q.** For `CCC(=O)C(C)=O` [2,3-pentanedione], which “Product (regioselective reduction)” value (Gox1615 [2]) is on record?
**A.** Its value is 2-hdrox-pentane-3-one.

**Q.** What about the Vmax (Gox0644 [3]) of the same compound?
**A.** The Vmax was 79 U/mg protein.

**Q.** And the activity levels (Gox0644 [4]; Gox0644 with 2,3 pentanedione, high concentration of acetaldehyde)?
**A.** Its activity levels is 66.8 U/mg.

**Q.** What about the Gox0644 activity (Gox0644 [4]; substrate 2,3-pentanedione, Control (without acetaldehyde)) of the same compound?
**A.** Its Gox0644 activity is 87.6 U/mg.

**Q.** What about the Gox0644 activity (Gox0644 [4]; substrate 2,3-pentanedione, acetaldehyde 10mM) of the same compound?
**A.** The Gox0644 activity was 90.5 U/mg.

**Q.** And the Gox0644 activity (Gox0644 [4]; substrate 2,3-pentanedione, acetaldehyde 30mM)?
**A.** Its Gox0644 activity is 79.3 U/mg.

**Q.** What about the Gox0644 activity (Gox0644 [4]; substrate 2,3-pentanedione, acetaldehyde 50mM) of the same compound?
**A.** The Gox0644 activity was 66.8 U/mg.

**Q.** Which Vmax (Gox1615 [1]) does the source give for `CC(=O)C=O` [methylglyoxal] here?
**A.** Its Vmax is 22 U/mg protein.

**Q.** Which results are given for `O=CC(=O)c1ccccc1` [phenylglyoxal]?
**A.** Product (regioselective reduction) (Gox1615 [2]): 2-hydroxy-2-phenyl-acetaldehyde; Product (regioselective reduction) (Gox1615 [2]; listed as Phenylglyoxal): 2-hydroxy-2-phenylacetaldehyde; Vmax (Gox0644 [3]): 93 U/mg protein; Gox0644 activity (Gox0644 [4]; substrate phenylglyoxal, Control (without acetaldehyde)): 38.5 U/mg; Gox0644 activity (Gox0644 [4]; substrate phenylglyoxal, acetaldehyde 10mM): 29.6 U/mg; Gox0644 activity (Gox0644 [4]; substrate phenylglyoxal, acetaldehyde 30mM): 37.1 U/mg; Gox0644 activity (Gox0644 [4]; substrate phenylglyoxal, acetaldehyde 50mM): 39.3 U/mg; Gox0644 activity (Gox0644 [4]; substrate phenylglyoxal, acetaldehyde 100mM): 31.2 U/mg
